Measurements: ChEMBL document CHEMBL1201862, “PubChem BioAssay data set” (2004)
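Each compound was tested at five concentrations against cells in 96-well plates for 48 hours. GI50 = concentration required for 50% inhibition of growth.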 Activity calls are given as the source filed them. Rule as the data show it: active = GI50 up to about 1.1 µM and inactive = higher.

Tests used:
Assay in all cases: NCI tumour cell line growth inhibition, 48 h
LOX IMVI = tested on: LOX IMVI
RPMI-8226 = tested on: RPMI-8226
SF-295 = tested on: SF-295
MDA-MB-231 = tested on: MDA-MB-231
MDA-N = tested on: MDA-N
BT-549 = tested on: BT-549
HCC 2998 = tested on: HCC 2998
COLO 205 = tested on: COLO 205
SNB-19 = tested on: SNB-19
M14 = tested on: M14
SR = tested on: SR
NCI-H460 = tested on: NCI-H460
OVCAR-3 = tested on: OVCAR-3
NCI-H226 = tested on: NCI-H226
HOP-62 = tested on: HOP-62
HT-29 = tested on: HT-29
SF-539 = tested on: SF-539
KM12 = tested on: KM12
Malme-3M = tested on: Malme-3M
OVCAR-5 = tested on: OVCAR-5
SK-MEL-5 = tested on: SK-MEL-5
OVCAR-4 = tested on: OVCAR-4
UO-31 = tested on: UO-31
MOLT-4 = tested on: MOLT-4
SF-268 = tested on: SF-268
SW-620 = tested on: SW-620
UACC-257 = tested on: UACC-257
CCRF-CEM = tested on: CCRF-CEM
SNB-75 = tested on: SNB-75
A549 = tested on: A549
OVCAR-8 = tested on: OVCAR-8
ACHN = tested on: ACHN
PC-3 = tested on: PC-3
EKVX = tested on: EKVX
K562 = tested on: K562
HCT-116 = tested on: HCT-116
T47D = tested on: T47D
SK-OV-3 = tested on: SK-OV-3
CAKI-1 = tested on: CAKI-1
HOP-92 = tested on: HOP-92
U-251 = tested on: U-251
MDA-MB-435 = tested on: MDA-MB-435
786-0 = tested on: 786-0
IGROV-1 = tested on: IGROV-1
NCI/ADR-RES = tested on: NCI/ADR-RES
SK-MEL-28 = tested on: SK-MEL-28
HL-60 = tested on: HL-60
DU-145 = tested on: DU-145
RXF 393 = tested on: RXF 393
A498 = tested on: A498
HCT-15 = tested on: HCT-15
NCI-H522 = tested on: NCI-H522
MCF7 = tested on: MCF7
NCI-H23 = tested on: NCI-H23
TK-10 = tested on: TK-10
UACC-62 = tested on: UACC-62
SN12C = tested on: SN12C
Hs-578T = tested on: Hs-578T
SK-MEL-2 = tested on: SK-MEL-2

SMILES: C=CCSSCC=C
- GI50 (LOX IMVI): 9.73 µM (inactive)
- GI50 (RPMI-8226): 4.05 µM (inactive)
- GI50 (SF-295): 55.5 µM (inactive)
- GI50 (MDA-MB-231): 16.8 µM (inactive)
- GI50 (MDA-N): 19.8 µM (inactive)
- GI50 (BT-549): 42.3 µM (inactive)
- GI50 (HCC 2998): > 100 µM (inactive)
- GI50 (COLO 205): 41.6 µM (inactive)
- GI50 (SNB-19): > 100 µM (inactive)
- GI50 (M14): 31.8 µM (inactive)
- GI50 (SR): 4.09 µM (inactive)
- GI50 (NCI-H460): 32.4 µM (inactive)
- GI50 (OVCAR-3): 52 µM (inactive)
- GI50 (NCI-H226): 32.1 µM (inactive)
- GI50 (HOP-62): > 71.9 µM (inactive)
- GI50 (HT-29): 38.4 µM (inactive)
- GI50 (SF-539): 29.5 µM (inactive)
- GI50 (KM12): 68.9 µM (inactive)
- GI50 (Malme-3M): 40.9 µM (inactive)
- GI50 (OVCAR-5): 51.6 µM (inactive)
- GI50 (SK-MEL-5): 35.4 µM (inactive)
- GI50 (OVCAR-4): > 76.6 µM (inactive)
- GI50 (UO-31): 32.9 µM (inactive)
- GI50 (MOLT-4): 1.8 µM (inactive)
- GI50 (SF-268): 47.9 µM (inactive)
- GI50 (SW-620): 19.1 µM (inactive)
- GI50 (UACC-257): 32.8 µM (inactive)
- GI50 (CCRF-CEM): 1.98 µM (inactive)
- GI50 (SNB-75): 60.8 µM (inactive)
- GI50 (A549): > 83.8 µM (inactive)
- GI50 (OVCAR-8): 27.6 µM (inactive)
- GI50 (ACHN): > 73.6 µM (inactive)
- GI50 (PC-3): 39.8 µM (inactive)
- GI50 (EKVX): > 100 µM (inactive)
- GI50 (K562): 5.5 µM (inactive)
- GI50 (HCT-116): 13.6 µM (inactive)
- GI50 (T47D): > 100 µM (inactive)
- GI50 (SK-OV-3): 90.4 µM (inactive)
- GI50 (CAKI-1): 44.8 µM (inactive)
- GI50 (HOP-92): 28.5 µM (inactive)
- GI50 (U-251): 61.4 µM (inactive)
- GI50 (MDA-MB-435): 32.1 µM (inactive)
- GI50 (786-0): 22.5 µM (inactive)
- GI50 (IGROV-1): > 71.6 µM (inactive)
- GI50 (NCI/ADR-RES): 28.1 µM (inactive)
- GI50 (SK-MEL-28): > 74.8 µM (inactive)
- GI50 (HL-60): 3.49 µM (inactive)
- GI50 (DU-145): > 100 µM (inactive)
- GI50 (RXF 393): 32.3 µM (inactive)
- GI50 (A498): > 100 µM (inactive)
- GI50 (HCT-15): 38.5 µM
- GI50 (NCI-H522): 15.9 µM (inactive)
- GI50 (MCF7): 30.3 µM (inactive)
- GI50 (NCI-H23): > 58.3 µM (inactive)
- GI50 (TK-10): > 100 µM (inactive)
- GI50 (UACC-62): 44.3 µM (inactive)
- GI50 (SN12C): 36.7 µM (inactive)
- GI50 (Hs-578T): 27.9 µM (inactive)
- GI50 (SK-MEL-2): > 71.1 µM (inactive)

SMILES: CC(C)=CCC[C@@H](C)C1=C(O)C(=O)C(C)=C(N[C@H](C)c2ccccc2)C1=O
- GI50 (LOX IMVI): 4.53 µM (inactive)
- GI50 (RPMI-8226): 6.31 µM (inactive)
- GI50 (SF-295): 3.86 µM (inactive)
- GI50 (MDA-MB-231): 7.35 µM (inactive)
- GI50 (MDA-N): 7.23 µM (inactive)
- GI50 (BT-549): 7.16 µM (inactive)
- GI50 (HCC 2998): 11.7 µM (inactive)
- GI50 (COLO 205): 4.33 µM (inactive)
- GI50 (SNB-19): 6.07 µM (inactive)
- GI50 (M14): 5.41 µM (inactive)
- GI50 (SR): 22.3 µM (inactive)
- GI50 (NCI-H460): 2.75 µM (inactive)
- GI50 (OVCAR-3): 5.36 µM (inactive)
- GI50 (NCI-H226): 4.27 µM (inactive)
- GI50 (HOP-62): 2.92 µM (inactive)
- GI50 (HT-29): 3.78 µM (inactive)
- GI50 (SF-539): 3.11 µM (inactive)
- GI50 (KM12): 6.3 µM (inactive)
- GI50 (Malme-3M): 3.24 µM (inactive)
- GI50 (OVCAR-5): 16.3 µM (inactive)
- GI50 (SK-MEL-5): 3.08 µM (inactive)
- GI50 (OVCAR-4): 5.75 µM (inactive)
- GI50 (UO-31): 4.27 µM (inactive)
- GI50 (MOLT-4): 2.54 µM (inactive)
- GI50 (SF-268): 7.01 µM (inactive)
- GI50 (SW-620): 5.92 µM (inactive)
- GI50 (UACC-257): 8.36 µM (inactive)
- GI50 (CCRF-CEM): 0.923 µM (active)
- GI50 (SNB-75): 2.53 µM (inactive)
- GI50 (A549): 3.28 µM (inactive)
- GI50 (OVCAR-8): 2.58 µM (inactive)
- GI50 (ACHN): 3.72 µM (inactive)
- GI50 (PC-3): 10.9 µM (inactive)
- GI50 (EKVX): 5.08 µM (inactive)
- GI50 (K562): 6.64 µM (inactive)
- GI50 (HCT-116): 4.66 µM (inactive)
- GI50 (T47D): 4.31 µM (inactive)
- GI50 (SK-OV-3): 3.84 µM (inactive)
- GI50 (CAKI-1): 4.11 µM (inactive)
- GI50 (HOP-92): 6.14 µM (inactive)
- GI50 (U-251): 5.51 µM (inactive)
- GI50 (MDA-MB-435): 7.1 µM (inactive)
- GI50 (786-0): 3.66 µM (inactive)
- GI50 (IGROV-1): 3.8 µM (inactive)
- GI50 (NCI/ADR-RES): 1.3 µM (inactive)
- GI50 (SK-MEL-28): 6.76 µM (inactive)
- GI50 (HL-60): 2.21 µM (inactive)
- GI50 (DU-145): 6.53 µM (inactive)
- GI50 (RXF 393): 6.71 µM (inactive)
- GI50 (A498): 3.91 µM (inactive)
- GI50 (HCT-15): 2.67 µM
- GI50 (NCI-H522): 3.2 µM (inactive)
- GI50 (MCF7): 3.64 µM (inactive)
- GI50 (NCI-H23): 4.38 µM (inactive)
- GI50 (TK-10): 8.17 µM (inactive)
- GI50 (UACC-62): 2.81 µM (inactive)
- GI50 (SN12C): 6.55 µM (inactive)
- GI50 (Hs-578T): 6.12 µM (inactive)
- GI50 (SK-MEL-2): 10.2 µM (inactive)
